Measurements as given in ChEMBL document CHEMBL1150988, “-lactam-recognizing enzymes exhibit different structural specificity in acyclic amide and ester substrates: a starting point in -lactamase evolution?” (Bioorg Med Chem Lett, 1994).
Where “and” joins values, the source holds several entries; their conditions need not be identical. Identical values can stand only once.

Assays:
[1] = biological target: Beta-lactamase (Enterobacter cloacae) (UniProt P05364); assay: Kcat against P99 beta-lactamase
[2] = Ratio for Kcat to Km was determined; design: unit not given here
Streptomyces [3] = assay: Km against Streptomyces R61 DD-peptidase
Streptomyces [4] = assay: Kcat against Streptomyces R61 DD-peptidase
[5] = Ratio for Kcat to Km against Streptomyces R61 DD-peptidase; design: unit not given here

Beta-lactamase (Enterobacter cloacae), sequence (P05364 21-381 limits assumed): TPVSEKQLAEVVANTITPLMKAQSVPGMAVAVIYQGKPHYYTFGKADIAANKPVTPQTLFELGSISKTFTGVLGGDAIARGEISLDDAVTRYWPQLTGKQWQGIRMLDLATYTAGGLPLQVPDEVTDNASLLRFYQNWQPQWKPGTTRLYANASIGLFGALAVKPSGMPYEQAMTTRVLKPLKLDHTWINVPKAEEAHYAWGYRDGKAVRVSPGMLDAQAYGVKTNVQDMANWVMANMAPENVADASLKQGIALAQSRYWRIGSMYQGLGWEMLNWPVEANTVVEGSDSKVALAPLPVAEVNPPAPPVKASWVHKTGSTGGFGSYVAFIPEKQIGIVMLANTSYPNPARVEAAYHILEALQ

| SMILES | k cat [1] | Ratio [2] | Km (Streptomyces [3]) | k cat (Streptomyces [4]) | Ratio [5] |
| --- | --- | --- | --- | --- | --- |
| CC(=O)NCCCC[C@H](NC(C)=O)C(=O)NCC(=O)N[C@H](C)C(=O)O | – | – | 15 mM | 0.019 s⁻¹ | 1.3 |
| CC(=O)NCCCC[C@H](NC(C)=O)C(=O)NCC(=O)S[C@H](C)C(=O)O | 5.1 s⁻¹ | 763 | 2 mM | 11.9 s⁻¹ | 5850 |
| CC(=O)NCCCC[C@H](NC(C)=O)C(=O)N[C@@H](C)C(=O)O[C@H](C)C(=O)O | 63 s⁻¹ | 2340 | 50.6 mM | 65.9 s⁻¹ | 1300 |
| CC(=O)NCCCC[C@H](NC(C)=O)C(=O)NCC(=O)O[C@H](C)C(=O)O | 17.8 s⁻¹ | 493 | 9.8 mM | 10.4 s⁻¹ | 1060 |

Next, values leading:

| k cat [1] | Ratio [2] | Km (Streptomyces [3]) | k cat (Streptomyces [4]) | Ratio [5] | SMILES |
| --- | --- | --- | --- | --- | --- |
| 27.3 s⁻¹ | 3390 | 11.8 mM | 4.3 s⁻¹ | 366 | C[C@@H](OC(=O)CNC(=O)Cc1ccccc1)C(=O)O |
| 22 s⁻¹ | 6670 | 0.63 mM | 6.1 s⁻¹ | 9660 | C[C@@H](SC(=O)CNC(=O)Cc1ccccc1)C(=O)O |
| – | – | 10 mM and 7 mM | 55 s⁻¹ | 5500 and 7890 | CC(=O)NCCCC[C@H](NC(C)=O)C(=O)N[C@@H](C)C(=O)N[C@H](C)C(=O)O |
| – | – | 7 mM | 2 s⁻¹ | 286 | C[C@H](NC(=O)Cc1ccccc1)C(=O)N[C@H](C)C(=O)O |
| 29 s⁻¹ | 1240 | 6.8 mM | 24.6 s⁻¹ | 3630 | C[C@H](NC(=O)Cc1ccccc1)C(=O)O[C@H](C)C(=O)O |
